Experimental data published in patent US6489317B1, “Method for eradication of Helicobacter pylori” (priority 1998, dated 2002).

System: H. pylori
Test: E-test (epsilon test, AB Biodisc) antibiotic sensitivity of H. pylori cultured from patients
Format: cell-based, Helicobacter pylori
Text: The E-test is used as a graded antibiotic sensitivity detecting strip for examining resistance of H.pylori.

CO[C@H]1/C=C/O[C@@]2(C)Oc3c(C)c(O)c4c(c3C2=O)C2=NC3(CCN(CC(C)C)CC3)NC2=C(NC(=O)/C(C)=C\C=C\[C@H](C)[C@H](O)[C@@H](C)[C@@H](O)[C@@H](C)[C@H](OC(C)=O)[C@@H]1C)C4=O [Rifabutin]
E. Test Rifabutin (H. pylori isolate of each patient): < 0.002 µg/mL | E. Test Rifabutin Result (H. pylori isolate of each patient, Resistant/Sensitive): Sensitive | sensitivity of infection to rifabutin (all cases of H. pylori infection resistant to one or both of metronidazole and clarithromycin): sensitive
